Assay results reported in US10717781B2, “Neuroinvasion inhibitor” (National Cancer Center, priority 2008, dated 2020).
Structures can show the parent of a compound that is named as a salt.

Tests used:
[1] = system: neural invasion of human pancreatic cancer cells in mouse sciatic nerve; experiment: administration of inhibitors to neural invasion model mice; type: in vivo
Procedure: Six-week-old male mice with severe combined immune deficiency (SCID) were used. The mice were anesthetized by administering barbital at 50 mg/kg into their peritoneal cavities. After exposing the left sciatic nerves, 2.5 μl of a suspension of cancer cells (1.0×10^4 cells/μl) was injected directly into the sciatic nerves using a microsyringe and 30-gauge needle. Upon assessment, the sciatic nerves into which cancer cells were injected were isolated. When tissue samples were prepared, the nerves were allowed to stand in 4% paraformaldehyde at 4° C. for one whole day and night to fix them. The fixed sciatic nerves were sliced into 3-μm sections, and then immunostained or hematoxylin/eosin-stained to measure the distance of neural invasion. Using an objective micrometer (Sankei Co.), the longitudinal length of the whole tumor was measured in the longitudinally sliced thin sections of the nerves to determine the distance of neural invasion. Tissue mRNA was extracted from tissue samples prepared by crushing with a Multi-Beads Shocker (Yasui Kikai Co.) immediately after harvesting the tissues.
The distance of neural invasion is an important factor in the mode of invasion of pancreatic cancer. […]
The analysis software used was STATVIEW 5.0. The difference between average values was evaluated by two-sided Student-t test. […]

[2] = system: pancreatic cancer; conditions: pancreatic cancer patients, foreign phase III clinical trial data, cited from earlier work
[3] = system: human pancreatic cancer cell lines; experiment: chemotaxis assay; type: cell-based; conditions: hrIL6 0, 1, 10, 100 ng/ml, 24 hours (FIG. 2C)
Procedure: (§1) Capan-1 and BxPC-3, which are human pancreatic cancer cell lines, were purchased from the American Type Culture Collection (ATCC). According to the manual recommended by ATCC, the cells were cultured and passaged using an incubator capable of maintaining a temperature of 37° C. under 5% CO2.
Cell culture inserts (BD Falcon) having 8-μm pores in the bottom surface were inserted into 24 wells. The cell culture inserts and wells were used as upper and lower chambers, respectively. Human recombinant IL-6 (hrIL6) vehicles were prepared at 0, 1, 10, and 100 ng/ml using hrIL6 (R&D systems) and serum-free culture medium. 600 μl of the hrIL6 vehicles was added to the lower chambers. 100 μl of a cell suspension (2×10^6 cells/ml) was added to the upper chambers. After 24 hours of incubation, cells that passed through the pores were counted. This assay was carried out twelve times for each group. The cell count was divided by the average number of cells that passed through the pores at 0 ng/ml hrIL6. The resulting normalized values were recorded.
(§2) Using human recombinant IL-6, the effects of IL-6 on growth activity, chemotactic activity, and migratory activity of the human pancreatic cancer cell lines were assessed by monitoring the cell count over time (FIGS. 2A and 2B), by chemotaxis assay (FIG. 2C), and by wound healing assay (FIG. 2D).

[4] = system: human pancreatic cancer Capan-1 cell line; experiment: Western blotting of intracellular signaling (pSTAT3, pErk1/2, pAkt); type: cell-based
Procedure: Western blotting was carried out using the following primary antibodies: anti-phosphorylated STAT3 antibody (Santa Cruz), anti-STAT3 antibody (Santa Cruz), anti-phosphorylated Erk1/2 antibody (Cell Signaling), anti-Erk1/2 antibody (Cell Signaling), anti-phosphorylated Akt antibody (Cell Signaling), anti-Akt antibody (Cell Signaling), and anti-actin antibody (Santa Cruz). Fluorescent immunostaining was carried out using the following primary antibodies: anti-S100 antibody (DAKO) and anti-mouse IL-6 antibody (Santa Cruz). Nuclear staining was performed using DRAQ5 (AXXORA). Immunostaining was performed using an anti-phosphorylated STAT3 antibody (Santa Cruz).
Cell lysates were prepared using a lysate buffer (20 mM Hepes-NaOH (pH 7.0), 0.5% NP-40, 15% Glycerol, 300 mM NaCl, 1 mM EDTA, 10 mM NaF). The protein concentration was determined using a BCA Protein Assay Kit (PIERCE). Then, cell lysates containing […] of protein were electrophoresed in 7.5% or 12% acrylamide gels. The proteins were transferred onto a polyvinylidene difluoride membrane (Millipore). An antibody was added to the membrane, and the protein expression was visualized using Enhanced Chemiluminescence Reagent (Amersham Biosciences).
Using human recombinant IL-6 (rhIL6), the effect of IL-6 on intracellular signaling of the human pancreatic cancer Capan-1 cell line was assessed by Western blotting for phosphorylated STAT3 (pSTAT3) (FIG. 3A), phosphorylated Erk1/2 (pErk1/2) (FIG. 3B), and phosphorylated Akt (pAkt) (FIG. 3C). […] In contrast, IL-6 had no effect on the expression of phosphorylated Akt.

[5] = system: human pancreatic cancer cell lines; experiment: wound healing assay (migratory activity); type: cell-based; conditions: hrIL6 0, 1, 10, 100 ng/ml, 24 hours (FIG. 2D)
Procedure: as §1
1 ml of a cell suspension (3×10^5 cells/ml) was added to each of 24 wells, and incubated for 24 hours. Then, the medium was replaced with serum-free medium. After 24 hours of incubation, a strip-shaped cell-free area was produced by scraping the central area of the well with a glass rod. After measuring the width of the strip, the medium was replaced with an hrIL6 vehicle at 0, 1, 10, or 100 ng/ml. After 24 hours of incubation, changes in the width of the cell-free area were determined. This assay was carried out twelve times for each group. The determined values were divided by the average width change at 0 ng/ml hrIL6. The resulting normalized values were recorded.
as §2

[6] = system: human pancreatic cancer cell lines; experiment: cell growth activity by monitoring the cell count over time; type: cell-based; conditions: cell count over time (FIGS. 2A and 2B)
Procedure: as §1
Cells were harvested from dishes, and viable cells were counted using trypan blue and a hemocytometer.
as §2

N#C/C(=C/c1ccc(O)c(O)c1)C(=O)NCc1ccccc1 [AG490]
neural invasion (invasion distance) ([1]; 0.5 mg intraperitoneally every day for 12 days from two days after injection of cancer cells, assessed at two weeks, vs 1% DMSO (FIG. 9A)): suppression of neural invasion

Nc1ccn([C@@H]2O[C@H](CO)[C@@H](O)C2(F)F)c(=O)n1 [gemcitabine hydrochloride]
efficacy rate of palliative effects ([2]; first drug of choice): 23.8% | median survival time [2]: 5.7 months | one-year survival rate [2]: 18%

IL-6: Human recombinant IL-6 (R&D systems), cytokine added to pancreatic cancer cell lines
effect on chemotactic activity [3]: enhances | expression of phosphorylated Akt ([4]; Capan-1 (FIG. 3C)): no effect | intracellular expression level of phosphorylated STAT3 protein ([4]; Capan-1, 15 minutes after addition of rhIL6 (FIG. 3A)): clearly elevated | intracellular expression level of phosphorylated Erk1/2 proteins ([4]; Capan-1, one hour after addition of rhIL6 (FIG. 3B)): clearly elevated | effect on migratory activity [5]: enhances | effect on cell growth [6]: no effect

anti-human IL-6 receptor antibody: anti-IL-6 receptor antibody (tocilizumab; Chugai Pharmaceutical Co.), which inhibits the human IL-6 receptor; humanized PM-1 antibody
neural invasion (invasion distance) ([1]; 5 μg/g twice a week for two weeks from one week after injection of cancer cells, assessed at three weeks, vs human IgG (FIG. 9B)): suppression of neural invasion
